Earlier results on 2 compounds are cited in patent US7605152B2, “17-hydroxy-4-aza-androstan-3-ones as androgen receptor modulators” (priority 2002, dated 2009).

For series [1] the following is noted: after 7 years of treatment.
For series [2] the following is noted: after a median of 22 months of treatment.

For `NCCCC(O)(P(=O)([O-])O)P(=O)(O)O.O.O.O.[Na+]` [alendronate, (4-amino-1-hydroxybutylidene)-bis-phosphonate monosodium trihydrate], the “increase in spinal BMD” value in series [1] is reported as 11%.

On to “hPTH(1-34): human parathyroid hormone 1-34 fragment (SVSEIQLMHNLGKHLNSMERVEWLRKKLQDVHNF; Parathyroid hormone; UniProt P01270 32-65, looked up, fragment)”, for which, in series [2], the “reduction in nonvertebral fractures” value is on record as 54% and the “reduction in spine fractures” value is reported as no less than 65%.
